According to BindingDB's records for doi:10.1016/s0960-894x(00)00026-3 (Universit&#224, 2000):

Assay: Inhibition of Clostridium histolyticum collagenase using a linear regression program

Row | SMILES | Ki [µM]
1 | Cc1ccc(S(=O)(=O)N(Cc2ccc([N+](=O)[O-])cc2)C(C)C(=O)O)cc1 (centres undefined) [2-[(4-Nitro-benzyl)-(toluene-4-sulfonyl)-amino]-propionic acid] | 13
2 | CC(C(=O)O)N(Cc1ccc([N+](=O)[O-])cc1)S(=O)(=O)c1c(F)c(F)c(F)c(F)c1F (centres undefined) [2-[(4-Nitro-benzyl)-pentafluorobenzenesulfonyl-amino]-propionic acid] | 0.4
3 | CC(C(=O)O)N(Cc1ccc([N+](=O)[O-])cc1)S(=O)(=O)Cc1ccccc1 (centres undefined) [2-[(4-Nitro-benzyl)-phenylmethanesulfonyl-amino]-propionic acid] | 15
4 | CC(C(=O)O)N(Cc1ccc([N+](=O)[O-])cc1)S(=O)(=O)C(Cl)(Cl)Cl (centres undefined) [2-[(4-Nitro-benzyl)-trichloromethanesulfonyl-amino]-propionic acid] | 5.1
5 | CC(C(=O)O)N(Cc1ccc([N+](=O)[O-])cc1)S(=O)(=O)C(F)(F)F (centres undefined) [2-[(4-Nitro-benzyl)-trifluoromethanesulfonyl-amino]-propionic acid] | 4.7
6 | CC(C(=O)O)N(Cc1ccc([N+](=O)[O-])cc1)S(=O)(=O)c1ccc(NC(=O)OC(C)(C)C)cc1 (centres undefined) [2-[(4-tert-Butoxycarbonylamino-benzenesulfonyl)-(4-nitro-benzyl)-amino]-propionic acid] | 2.4
7 | CC(C(=O)NO)N(Cc1ccc([N+](=O)[O-])cc1)S(=O)(=O)c1cccc2c(N(C)C)cccc12 (centres undefined) [2-[(5-Dimethylamino-naphthalene-1-sulfonyl)-(4-nitro-benzyl)-amino]-N-hydroxy-propionamide] | 7
8 | CC(C(=O)O)N(Cc1ccc([N+](=O)[O-])cc1)S(=O)(=O)c1cccc2c(N(C)C)cccc12 (centres undefined) [2-[(5-Dimethylamino-naphthalene-1-sulfonyl)-(4-nitro-benzyl)-amino]-propionic acid] | 1.1
9 | CC(C(=O)NO)N(Cc1ccc([N+](=O)[O-])cc1)S(=O)(=O)C(F)(F)C(F)(F)C(F)(F)C(F)(F)C(F)(F)C(F)(F)C(F)(F)C(F)(F)F (centres undefined) [2-[(Heptadecafluorooctane-1-sulfonyl)-(4-nitro-benzyl)-amino]-N-hydroxy-propionamide] | 7
10 | CC(C(=O)O)N(Cc1ccc([N+](=O)[O-])cc1)S(=O)(=O)C(F)(F)C(F)(F)C(F)(F)C(F)(F)C(F)(F)C(F)(F)C(F)(F)C(F)(F)F (centres undefined) [2-[(Heptadecafluorooctane-1-sulfonyl)-(4-nitro-benzyl)-amino]-propionic acid] | 1.8
11 | CC(C(=O)O)N(Cc1ccc([N+](=O)[O-])cc1)S(=O)(=O)c1cccc2ccccc12 (centres undefined) [2-[(Naphthalene-1-sulfonyl)-(4-nitro-benzyl)-amino]-propionic acid] | 1.2
12 | CC(C(=O)O)N(Cc1ccc([N+](=O)[O-])cc1)S(=O)(=O)c1ccc2ccccc2c1 (centres undefined) [2-[(Naphthalene-2-sulfonyl)-(4-nitro-benzyl)-amino]-propionic acid] | 1.3
13 | Cc1ccccc1S(=O)(=O)NC(=O)N(Cc1ccc([N+](=O)[O-])cc1)C(C)C(=O)O (centres undefined) [2-[({[(2-methylphenyl)sulfonyl]amino}carbonyl)(4-nitrobenzyl)amino]propanoic acid] | 3.1
14 | CC(C(=O)NO)N(Cc1ccc([N+](=O)[O-])cc1)C(=O)NS(=O)(=O)c1ccc(Cl)cc1 (centres undefined) [2-[({[(4-chlorophenyl)sulfonyl]amino}carbonyl)(4-nitrobenzyl)amino]-N-hydroxypropanamide] | 7
15 | CC(C(=O)O)N(Cc1ccc([N+](=O)[O-])cc1)C(=O)NS(=O)(=O)c1ccc(Cl)cc1 (centres undefined) [2-[({[(4-chlorophenyl)sulfonyl]amino}carbonyl)(4-nitrobenzyl)amino]propanoic acid] | 2.4
16 | CC(C(=O)NO)N(Cc1ccc([N+](=O)[O-])cc1)C(=O)NS(=O)(=O)c1ccc(F)cc1 (centres undefined) [2-[({[(4-fluorophenyl)sulfonyl]amino}carbonyl)(4-nitrobenzyl)amino]-N-hydroxypropanamide] | 9
17 | CC(C(=O)O)N(Cc1ccc([N+](=O)[O-])cc1)C(=O)NS(=O)(=O)c1ccc(F)cc1 (centres undefined) [2-[({[(4-fluorophenyl)sulfonyl]amino}carbonyl)(4-nitrobenzyl)amino]propanoic acid] | 3.3
18 | Cc1ccc(S(=O)(=O)NC(=O)N(Cc2ccc([N+](=O)[O-])cc2)C(C)C(=O)O)cc1 (centres undefined) [2-[({[(4-methylphenyl)sulfonyl]amino}carbonyl)(4-nitrobenzyl)amino]propanoic acid] | 2.5
19 | CC(C(=O)NO)N(Cc1ccc([N+](=O)[O-])cc1)S(=O)(=O)c1ccccc1 (centres undefined) [2-[Benzenesulfonyl-(4-nitro-benzyl)-amino]-N-hydroxy-propionamide] | 54
20 | CC(C(=O)O)N(Cc1ccc([N+](=O)[O-])cc1)S(=O)(=O)c1ccccc1 (centres undefined) [2-[Benzenesulfonyl-(4-nitro-benzyl)-amino]-propionic acid] | 21
21 | CC(C(=O)O)N(Cc1ccc([N+](=O)[O-])cc1)S(C)(=O)=O (centres undefined) [2-[Methanesulfonyl-(4-nitro-benzyl)-amino]-propionic acid] | 18
22 | CC(C(=O)NO)N(Cc1ccc([N+](=O)[O-])cc1)S(=O)(=O)N(C)C (centres undefined) [2-[[(dimethylamino)sulfonyl](4-nitrobenzyl)amino]-N-hydroxypropanamide] | 69

Row | SMILES | Ki [µM]
23 | CC(C(=O)O)N(Cc1ccc([N+](=O)[O-])cc1)S(=O)(=O)N(C)C (centres undefined) [2-[[(dimethylamino)sulfonyl](4-nitrobenzyl)amino]propanoic acid] | 36
24 | CC(C(=O)O)N(Cc1ccc([N+](=O)[O-])cc1)S(=O)(=O)c1cccc(C(=O)O)c1 (centres undefined) [3-[(1-Carboxy-ethyl)-(4-nitro-benzyl)-sulfamoyl]-benzoic acid] | 2
25 | CC(C(=O)NO)N(Cc1ccc([N+](=O)[O-])cc1)S(=O)(=O)c1cccc(C(=O)O)c1 (centres undefined) [3-[(1-Hydroxycarbamoyl-ethyl)-(4-nitro-benzyl)-sulfamoyl]-benzoic acid] | 9
26 | CC(C(=O)O)N(Cc1ccc([N+](=O)[O-])cc1)S(=O)(=O)c1ccc(C(=O)O)cc1 (centres undefined) [4-[(1-Carboxy-ethyl)-(4-nitro-benzyl)-sulfamoyl]-benzoic acid] | 1.4
27 | CC(C(=O)NO)N(Cc1ccc([N+](=O)[O-])cc1)S(=O)(=O)c1ccc(C(=O)O)cc1 (centres undefined) [4-[(1-Hydroxycarbamoyl-ethyl)-(4-nitro-benzyl)-sulfamoyl]-benzoic acid] | 6
28 | CC(C(=O)NO)N(Cc1ccc([N+](=O)[O-])cc1)C(=O)Nc1cccc2ccccc12 (centres undefined) [N-Hydroxy-2-[3-naphthalen-1-yl-1-(4-nitro-benzyl)-ureido]-propionamide] | 10
29 | CC(C(=O)NO)N(Cc1ccc([N+](=O)[O-])cc1)S(=O)(=O)c1ccccc1[N+](=O)[O-] (centres undefined) [N-Hydroxy-2-[(2-nitro-benzenesulfonyl)-(4-nitro-benzyl)-amino]-propionamide] | 13
30 | CC(C(=O)NO)N(Cc1ccc([N+](=O)[O-])cc1)S(=O)(=O)c1cccc([N+](=O)[O-])c1 (centres undefined) [N-Hydroxy-2-[(3-nitro-benzenesulfonyl)-(4-nitro-benzyl)-amino]-propionamide] | 12
31 | CC(C(=O)NO)N(Cc1ccc([N+](=O)[O-])cc1)S(=O)(=O)c1ccc(I)cc1 (centres undefined) [N-Hydroxy-2-[(4-iodo-benzenesulfonyl)-(4-nitro-benzyl)-amino]-propionamide] | 37
32 | COc1ccc(S(=O)(=O)N(Cc2ccc([N+](=O)[O-])cc2)C(C)C(=O)NO)cc1 (centres undefined) [N-Hydroxy-2-[(4-methoxy-benzenesulfonyl)-(4-nitro-benzyl)-amino]-propionamide] | 21
33 | CC(C(=O)NO)N(Cc1ccc([N+](=O)[O-])cc1)S(=O)(=O)c1ccc([N+](=O)[O-])cc1 (centres undefined) [N-Hydroxy-2-[(4-nitro-benzenesulfonyl)-(4-nitro-benzyl)-amino]-propionamide] | 10
34 | Cc1cc(C)c(S(=O)(=O)N(Cc2ccc([N+](=O)[O-])cc2)C(C)C(=O)NO)c(C)c1 (centres undefined) [N-Hydroxy-2-[(4-nitro-benzyl)-(2,4,6-trimethyl-benzenesulfonyl)-amino]-propionamide] | 17
35 | CC(C(=O)NO)N(Cc1ccc([N+](=O)[O-])cc1)S(=O)(=O)c1cccc(C(F)(F)F)c1 (centres undefined) [N-Hydroxy-2-[(4-nitro-benzyl)-(3-trifluoromethyl-benzenesulfonyl)-amino]-propionamide] | 6
36 | CC(C(=O)NO)N(Cc1ccc([N+](=O)[O-])cc1)Sc1ccc([N+](=O)[O-])cc1 (centres undefined) [N-Hydroxy-2-[(4-nitro-benzyl)-(4-nitro-phenylsulfanyl)-amino]-propionamide] | 11
37 | CC(C(=O)NO)N(Cc1ccc([N+](=O)[O-])cc1)S(=O)(=O)c1cccc2cccnc12 (centres undefined) [N-Hydroxy-2-[(4-nitro-benzyl)-(quinoline-8-sulfonyl)-amino]-propionamide] | 8
38 | CC(C(=O)NO)N(Cc1ccc([N+](=O)[O-])cc1)S(=O)(=O)c1cccs1 (centres undefined) [N-Hydroxy-2-[(4-nitro-benzyl)-(thiophene-2-sulfonyl)-amino]-propionamide] | 11
39 | Cc1ccc(S(=O)(=O)N(Cc2ccc([N+](=O)[O-])cc2)C(C)C(=O)NO)cc1 (centres undefined) [N-Hydroxy-2-[(4-nitro-benzyl)-(toluene-4-sulfonyl)-amino]-propionamide] | 36
40 | CC(C(=O)NO)N(Cc1ccc([N+](=O)[O-])cc1)S(=O)(=O)c1c(F)c(F)c(F)c(F)c1F (centres undefined) [N-Hydroxy-2-[(4-nitro-benzyl)-pentafluorobenzenesulfonyl-amino]-propionamide] | 5
41 | CC(C(=O)NO)N(Cc1ccc([N+](=O)[O-])cc1)S(=O)(=O)Cc1ccccc1 (centres undefined) [N-Hydroxy-2-[(4-nitro-benzyl)-phenylmethanesulfonyl-amino]-propionamide] | 50
42 | CC(C(=O)NO)N(Cc1ccc([N+](=O)[O-])cc1)S(=O)(=O)C(Cl)(Cl)Cl (centres undefined) [N-Hydroxy-2-[(4-nitro-benzyl)-trichloromethanesulfonyl-amino]-propionamide] | 52
43 | CC(C(=O)NO)N(Cc1ccc([N+](=O)[O-])cc1)S(=O)(=O)C(F)(F)F (centres undefined) [N-Hydroxy-2-[(4-nitro-benzyl)-trifluoromethanesulfonyl-amino]-propionamide] | 75
44 | CC(C(=O)NO)N(Cc1ccc([N+](=O)[O-])cc1)S(=O)(=O)c1cccc2ccccc12 (centres undefined) [N-Hydroxy-2-[(naphthalene-1-sulfonyl)-(4-nitro-benzyl)-amino]-propionamide] | 7
